# Source: the supplement of paper PMC10307832
# How the values were obtained:
# Assay in all cases: relative viability (nuclei count vs DMSO), 5 days (fraction); higher = more cells survive
# CAL-12T = tested on: CAL-12T
# Summary of the method: (§1)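 Lung cancer cell lines, seeded in 1536-well plates, were treated the following day by pin tool with a single drug or with five library-drug doses (not always all listed) in √10 steps on top of a fixed anchor-drug dose. Cells were fixed and nuclei stained in one step after 5 days, and nuclei were counted. Relative viability is the nuclei count for treated wells divided by that for vehicle wells, reported as medians of duplicate plates.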
# COR-L 105 = tested on: COR-L 105
# Summary of the method: as §1
# ChaGo-K-1 = tested on: ChaGo-K-1
# Summary of the method: as §1
# EMC-BAC-2 = tested on: EMC-BAC-2
# Summary of the method: as §1
# EPLC-272H = tested on: EPLC-272H
# Summary of the method: as §1
# HCC-15 = tested on: HCC-15
# Summary of the method: as §1
# HCC-78 = tested on: HCC-78
# Summary of the method: as §1
# HOP-62 = tested on: HOP-62
# Summary of the method: as §1
# LXF-289 = tested on: LXF-289
# Summary of the method: as §1
# NCI-H1666 = tested on: NCI-H1666
# Summary of the method: as §1
# NCI-H1755 = tested on: NCI-H1755
# Summary of the method: as §1
# NCI-H1915 = tested on: NCI-H1915
# Summary of the method: as §1
# NCI-H1975 = tested on: NCI-H1975
# Summary of the method: as §1
# NCI-H2023 = tested on: NCI-H2023
# Summary of the method: as §1
# NCI-H2085 = tested on: NCI-H2085
# Summary of the method: as §1
# NCI-H2126 = tested on: NCI-H2126
# Summary of the method: as §1
# NCI-H3122 = tested on: NCI-H3122
# Summary of the method: as §1
# NCI-H322M = tested on: NCI-H322M
# Summary of the method: as §1
# NCI-H358 = tested on: NCI-H358
# Summary of the method: as §1
# NCI-H441 = tested on: NCI-H441
# Summary of the method: as §1
# UMC-11 = tested on: UMC-11
# Summary of the method: as §1
compound,measurement,setting,value
Cc1sc2c(c1C)C(c1ccc(Cl)cc1)=N[C@@H](CC(=O)OC(C)(C)C)c1nnc(C)n1-2 [JQ1] + CC(=O)Nc1cccc(-n2c(=O)n(C3CC3)c(=O)c3c(Nc4ccc(I)cc4F)n(C)c(=O)c(C)c32)c1 [Trametinib] (partner 0.02 µM),relative viability,CAL-12T; first compound 0.04 µM,0.354
same,relative viability,CAL-12T; first compound 0.1265 µM,0.29
same,relative viability,CAL-12T; first compound 0.4 µM,0.207
same,relative viability,CAL-12T; first compound 1.265 µM,0.193
same,relative viability,CAL-12T; first compound 4 µM,0.208
same,relative viability,COR-L 105; first compound 0.04 µM,0.46
same,relative viability,COR-L 105; first compound 0.1265 µM,0.362
same,relative viability,COR-L 105; first compound 0.4 µM,0.377
same,relative viability,COR-L 105; first compound 1.265 µM,0.355
same,relative viability,COR-L 105; first compound 4 µM,0.357
same,relative viability,ChaGo-K-1; first compound 0.04 µM,0.943
same,relative viability,ChaGo-K-1; first compound 0.1265 µM,0.928
same,relative viability,ChaGo-K-1; first compound 0.4 µM,0.797
same,relative viability,ChaGo-K-1; first compound 1.265 µM,0.641
same,relative viability,ChaGo-K-1; first compound 4 µM,0.483
same,relative viability,EMC-BAC-2; first compound 0.04 µM,0.935
same,relative viability,EMC-BAC-2; first compound 0.4 µM,0.881
same,relative viability,EMC-BAC-2; first compound 1.265 µM,0.586
same,relative viability,EMC-BAC-2; first compound 4 µM,0.366
same,relative viability,EPLC-272H; first compound 0.04 µM,0.278
same,relative viability,EPLC-272H; first compound 0.1265 µM,0.252
same,relative viability,EPLC-272H; first compound 0.4 µM,0.273
same,relative viability,EPLC-272H; first compound 1.265 µM,0.254
same,relative viability,EPLC-272H; first compound 4 µM,0.215
same,relative viability,HCC-15; first compound 0.04 µM,0.376
same,relative viability,HCC-15; first compound 0.4 µM,0.338
same,relative viability,HCC-15; first compound 1.265 µM,0.31
same,relative viability,HCC-15; first compound 4 µM,0.28
same,relative viability,HCC-78; first compound 0.04 µM,0.791
same,relative viability,HCC-78; first compound 0.1265 µM,0.603
same,relative viability,HCC-78; first compound 0.4 µM,0.572
same,relative viability,HCC-78; first compound 1.265 µM,0.462
same,relative viability,HCC-78; first compound 4 µM,0.367
same,relative viability,HOP-62; first compound 0.04 µM,0.307
same,relative viability,HOP-62; first compound 0.1265 µM,0.262
same,relative viability,HOP-62; first compound 0.4 µM,0.156
same,relative viability,HOP-62; first compound 1.265 µM,0.119
same,relative viability,HOP-62; first compound 4 µM,0.106
same,relative viability,LXF-289; first compound 0.04 µM,0.641
same,relative viability,LXF-289; first compound 0.1265 µM,0.698
same,relative viability,LXF-289; first compound 0.4 µM,0.676
same,relative viability,LXF-289; first compound 1.265 µM,0.607
same,relative viability,LXF-289; first compound 4 µM,0.477
same,relative viability,NCI-H1666; first compound 0.04 µM,0.92
same,relative viability,NCI-H1666; first compound 0.1265 µM,0.874
same,relative viability,NCI-H1666; first compound 0.4 µM,0.847
same,relative viability,NCI-H1666; first compound 1.265 µM,0.641
same,relative viability,NCI-H1666; first compound 4 µM,0.757
same,relative viability,NCI-H1755; first compound 0.04 µM,0.796
same,relative viability,NCI-H1755; first compound 0.1265 µM,0.809
same,relative viability,NCI-H1755; first compound 0.4 µM,0.8
same,relative viability,NCI-H1755; first compound 1.265 µM,0.674
same,relative viability,NCI-H1755; first compound 4 µM,0.65
same,relative viability,NCI-H1915; first compound 0.04 µM,0.281
same,relative viability,NCI-H1915; first compound 0.4 µM,0.317
same,relative viability,NCI-H1915; first compound 1.265 µM,0.237
same,relative viability,NCI-H1915; first compound 4 µM,0.2
same,relative viability,NCI-H1975; first compound 0.04 µM,0.342
same,relative viability,NCI-H1975; first compound 0.1265 µM,0.27
same,relative viability,NCI-H1975; first compound 0.4 µM,0.244
same,relative viability,NCI-H1975; first compound 1.265 µM,0.217
same,relative viability,NCI-H1975; first compound 4 µM,0.198
same,relative viability,NCI-H2023; first compound 0.04 µM,0.472
same,relative viability,NCI-H2023; first compound 0.1265 µM,0.394
same,relative viability,NCI-H2023; first compound 0.4 µM,0.248
same,relative viability,NCI-H2023; first compound 1.265 µM,0.162
same,relative viability,NCI-H2023; first compound 4 µM,0.137
same,relative viability,NCI-H2085; first compound 0.04 µM,0.376
same,relative viability,NCI-H2085; first compound 0.1265 µM,0.551
same,relative viability,NCI-H2085; first compound 0.4 µM,0.407
same,relative viability,NCI-H2085; first compound 1.265 µM,0.248
same,relative viability,NCI-H2085; first compound 4 µM,0.239
same,relative viability,NCI-H2126; first compound 0.04 µM,0.521
same,relative viability,NCI-H2126; first compound 0.1265 µM,0.549
same,relative viability,NCI-H2126; first compound 0.4 µM,0.486
same,relative viability,NCI-H2126; first compound 1.265 µM,0.368
same,relative viability,NCI-H2126; first compound 4 µM,0.416
same,relative viability,NCI-H3122; first compound 0.04 µM,0.219
same,relative viability,NCI-H3122; first compound 0.1265 µM,0.179
same,relative viability,NCI-H3122; first compound 0.4 µM,0.322
same,relative viability,NCI-H3122; first compound 1.265 µM,0.317
same,relative viability,NCI-H3122; first compound 4 µM,0.304
same,relative viability,NCI-H322M; first compound 0.04 µM,0.555
same,relative viability,NCI-H322M; first compound 0.1265 µM,0.644
same,relative viability,NCI-H322M; first compound 0.4 µM,0.45
same,relative viability,NCI-H322M; first compound 1.265 µM,0.334
same,relative viability,NCI-H322M; first compound 4 µM,0.539
same,relative viability,NCI-H358; first compound 0.04 µM,0.148
same,relative viability,NCI-H358; first compound 0.1265 µM,0.143
same,relative viability,NCI-H358; first compound 0.4 µM,0.122
same,relative viability,NCI-H358; first compound 1.265 µM,0.133
same,relative viability,NCI-H358; first compound 4 µM,0.127
same,relative viability,NCI-H441; first compound 0.04 µM,0.476
same,relative viability,NCI-H441; first compound 0.1265 µM,0.377
same,relative viability,NCI-H441; first compound 0.4 µM,0.31
same,relative viability,NCI-H441; first compound 1.265 µM,0.175
same,relative viability,NCI-H441; first compound 4 µM,0.169
same,relative viability,UMC-11; first compound 0.04 µM,0.588
same,relative viability,UMC-11; first compound 0.1265 µM,0.543
same,relative viability,UMC-11; first compound 0.4 µM,0.377
same,relative viability,UMC-11; first compound 1.265 µM,0.204
same,relative viability,UMC-11; first compound 4 µM,0.194
